In the NIST ThermoML archive (doi:10.1021/je900387e):

Assay: xn = mol fraction of the nth substance listed
Conditions: Liquid, Pycnometric method

Cn1ccnc1 [1-methylimidazole] + O=C=O
Conditions	mass density [kg/m3]
332.4 K, 18690 kPa, x1 = 0.1024	902
332.4 K, 18750 kPa, x1 = 0.1024	903
332.4 K, 18860 kPa, x1 = 0.0102	773
332.4 K, 18860 kPa, x1 = 0.0487	837
332.4 K, 18860 kPa, x1 = 0.1024	904
332.4 K, 18940 kPa, x1 = 0.1024	905
332.4 K, 19040 kPa, x1 = 0.0487	840
337.4 K, 13050 kPa, x1 = 0.0102	568
337.4 K, 13150 kPa, x1 = 0.0102	576
337.4 K, 13270 kPa, x1 = 0.0102	584
337.4 K, 13370 kPa, x1 = 0.0102	593
337.4 K, 13490 kPa, x1 = 0.0102	601
337.4 K, 13620 kPa, x1 = 0.0102	610
337.4 K, 13770 kPa, x1 = 0.0102	619
337.4 K, 13910 kPa, x1 = 0.0102	628
337.4 K, 14080 kPa, x1 = 0.0102	638
337.4 K, 14240 kPa, x1 = 0.0102	648
337.4 K, 14430 kPa, x1 = 0.0102	658
337.4 K, 14490 kPa, x1 = 0.0247	650
337.4 K, 14560 kPa, x1 = 0.0247	653
337.4 K, 14630 kPa, x1 = 0.0102	669
337.4 K, 14660 kPa, x1 = 0.0247	658
337.4 K, 14780 kPa, x1 = 0.0247	662
337.4 K, 14850 kPa, x1 = 0.0102	680
337.4 K, 14900 kPa, x1 = 0.0247	666
337.4 K, 15020 kPa, x1 = 0.0247	671
337.4 K, 15080 kPa, x1 = 0.0102	691
337.4 K, 15140 kPa, x1 = 0.0247	675
337.4 K, 15270 kPa, x1 = 0.0247	680
337.4 K, 15350 kPa, x1 = 0.0102	703
337.4 K, 15420 kPa, x1 = 0.0247	684
337.4 K, 15560 kPa, x1 = 0.0247	689
337.4 K, 15730 kPa, x1 = 0.0247	693
337.4 K, 15740 kPa, x1 = 0.0102	719
337.4 K, 15880 kPa, x1 = 0.0247	698
337.4 K, 16050 kPa, x1 = 0.0247	703
337.4 K, 16080 kPa, x1 = 0.0102	732
337.4 K, 16230 kPa, x1 = 0.0247	708
337.4 K, 16410 kPa, x1 = 0.0247	713
337.4 K, 16450 kPa, x1 = 0.0102	745
337.4 K, 16600 kPa, x1 = 0.0487	768
337.4 K, 16610 kPa, x1 = 0.0247	717
337.4 K, 16640 kPa, x1 = 0.0487	769
337.4 K, 16730 kPa, x1 = 0.0487	770
337.4 K, 16840 kPa, x1 = 0.0102	759
337.4 K, 16850 kPa, x1 = 0.0487	773
337.4 K, 16890 kPa, x1 = 0.0247	724
337.4 K, 16960 kPa, x1 = 0.0487	775
337.4 K, 17070 kPa, x1 = 0.0487	777
337.4 K, 17170 kPa, x1 = 0.0487	780
337.4 K, 17190 kPa, x1 = 0.0247	731
337.4 K, 17290 kPa, x1 = 0.0487	782
337.4 K, 17300 kPa, x1 = 0.0102	773
337.4 K, 17410 kPa, x1 = 0.0487	784
337.4 K, 17450 kPa, x1 = 0.0247	737
337.4 K, 17560 kPa, x1 = 0.0487	787
337.4 K, 17680 kPa, x1 = 0.0247	742
337.4 K, 17680 kPa, x1 = 0.0487	789
337.4 K, 17810 kPa, x1 = 0.0487	791
337.4 K, 17820 kPa, x1 = 0.0102	788
337.4 K, 17940 kPa, x1 = 0.0487	794
337.4 K, 18060 kPa, x1 = 0.0247	749
337.4 K, 18090 kPa, x1 = 0.0487	797
337.4 K, 18200 kPa, x1 = 0.0102	798
337.4 K, 18210 kPa, x1 = 0.0487	799
337.4 K, 18350 kPa, x1 = 0.0487	800
337.4 K, 18510 kPa, x1 = 0.0487	804
337.4 K, 18610 kPa, x1 = 0.0102	808
337.4 K, 18670 kPa, x1 = 0.0487	806
337.4 K, 18810 kPa, x1 = 0.0102	813
337.4 K, 18820 kPa, x1 = 0.0487	809
337.4 K, 18990 kPa, x1 = 0.0487	811
